In brackets after ≈: the same amount, converted by molar mass.
Key:
Escherichia coli [1] = experiment: Antibacterial activity against Escherichia coli K12; assay type: functional
Escherichia coli [2] = experiment: Ratio, MIC/MBC for Escherichia coli K12; assay type: functional
Escherichia coli [3] = experiment: Antibacterial activity against Escherichia coli W3110; assay type: functional
Escherichia coli [4] = experiment: Antibacterial activity against Escherichia coli pTMV19; assay type: functional
Escherichia coli [5] = experiment: Antibacterial activity against Escherichia coli pTMV19 in presence of mevalonate; assay type: functional
[6] = biological target: T1, 1-deoxy-D-xylulose 5-phosphate reductoisomerase (Escherichia coli K-12, UniProt P45568); experiment: Inhibition of Escherichia coli DXR
T1 sequence (P45568 whole entry): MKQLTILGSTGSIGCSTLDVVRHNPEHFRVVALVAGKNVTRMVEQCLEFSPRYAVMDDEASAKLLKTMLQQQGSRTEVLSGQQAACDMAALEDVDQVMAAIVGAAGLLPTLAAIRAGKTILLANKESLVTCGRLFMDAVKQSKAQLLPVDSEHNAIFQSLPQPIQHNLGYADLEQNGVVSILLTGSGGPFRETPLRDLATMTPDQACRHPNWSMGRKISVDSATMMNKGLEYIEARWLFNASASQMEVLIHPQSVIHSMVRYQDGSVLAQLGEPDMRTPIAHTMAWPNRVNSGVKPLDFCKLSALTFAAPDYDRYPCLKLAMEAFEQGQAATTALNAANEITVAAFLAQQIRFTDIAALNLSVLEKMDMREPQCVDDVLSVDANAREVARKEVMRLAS

[7] = Inhibition of Trypanosoma brucei FPPS expressed in Escherichia coli
Escherichia coli [8] = experiment: Antibacterial activity against Escherichia coli K12 by broth microdilution method; assay type: functional, organism-based
[9] = biological target: T2, Farnesyl diphosphate synthase (Escherichia coli K-12, UniProt P22939); experiment: Inhibition of Escherichia coli FPPS
T2 sequence (P22939 whole entry): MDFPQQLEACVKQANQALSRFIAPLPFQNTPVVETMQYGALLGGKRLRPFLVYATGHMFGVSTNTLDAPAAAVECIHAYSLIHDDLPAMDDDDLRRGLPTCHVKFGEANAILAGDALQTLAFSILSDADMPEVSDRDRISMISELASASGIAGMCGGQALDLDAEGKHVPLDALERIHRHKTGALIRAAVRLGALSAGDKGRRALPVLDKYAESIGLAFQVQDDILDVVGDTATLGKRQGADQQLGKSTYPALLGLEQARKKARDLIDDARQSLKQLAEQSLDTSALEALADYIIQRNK

Escherichia coli [10] = experiment: Antibacterial activity against Escherichia coli K12 in presence of fosmidomycin; assay type: functional
Escherichia coli [11] = experiment: Ratio, MIC/MBC for Escherichia coli K12 in presence of fosmidomycin; assay type: functional

| SMILES | inhibition zone (IZ) (Escherichia coli [3]) [mm] | inhibition zone (IZ) (Escherichia coli [4]) [mm] | inhibition zone (IZ) (Escherichia coli [5]) [mm] | also measured |
| --- | --- | --- | --- | --- |
| CC1(C)S[C@@H]2[C@H](NC(=O)C(C(=O)O)c3ccccc3)C(=O)N2[C@H]1C(=O)O (some centres undefined) [CARBENICILLIN] | – | – | – | MBC (Escherichia coli [1]): 20 µM (≈ 7.57 µg/mL); MIC (Escherichia coli [1]): 20 µM (≈ 7.57 µg/mL); Ratio (Escherichia coli [2]): 1 |
| CN(CCCCc1ccccc1)CCC(O)(P(=O)(O)O)P(=O)(O)O | 19 | 18 | 17 | IC50 [6]: 245000 nM; IC50 [7]: 444000 nM; IC50 (Escherichia coli [8]): 33000 nM; IC50 [9]: 1300 nM; MBC (Escherichia coli [1]): 1250 µM (≈ 477 µg/mL); MIC (Escherichia coli [1]): 156 µM (≈ 59.5 µg/mL); MBC (Escherichia coli [10]): 625 µM; MIC (Escherichia coli [10]): 312 µM; Ratio (Escherichia coli [2]): 0.13; Ratio (Escherichia coli [11]): 0.5 |
| O=P(O)(O)C(O)(Cc1cnc2ccccn12)P(=O)(O)O [MINODRONIC ACID] | 10 | 0 | 0 | IC50 [9]: 1100 nM |
| O=CN(O)CCCP(=O)(O)O [FOSMIDOMYCIN] | 20 | 19 | 0 | IC50 [7]: 200 nM; IC50 (Escherichia coli [8]): 220 nM; MBC (Escherichia coli [1]): 2500 µM (≈ 458 µg/mL); MIC (Escherichia coli [1]): 312 µM (≈ 57.1 µg/mL) |
| O=P(O)(O)C(O)(Cc1c[nH]cn1)P(=O)(O)O | 0 | 0 | 0 | – |
| O=P(O)(O)C(Nc1ccc(I)cn1)P(=O)(O)O | 7 | 7 | 7 | – |
| O=P(O)(O)C(Nc1ccc(Br)cn1)P(=O)(O)O | 12 | 11 | 8 | – |
| CCCCCCCCc1ccc(C(O)(P(=O)(O)O)P(=O)(O)O)cc1 | 0 | 0 | 0 | – |
| O=P(O)(O)C(Nc1ccc(Cl)cn1)P(=O)(O)O | 13 | 9 | 12 | – |
| O=P(O)(O)C(Nc1cccc(Cc2ccccc2)c1)P(=O)(O)O | 7 | 8 | 0 | – |
| CCCCCCCCCC(O)(P(=O)(O)O)P(=O)(O)O | 9 | 0 | 0 | – |
| O=P(O)(O)C(N1CCCCCC1)P(=O)(O)O [N-(HEXAMETHYLENEIMINO)METHYLENEBISPHOSPHONIC ACID] | 0 | 0 | 0 | – |
| CCCCCCCCCCC(O)(P(=O)(O)O)P(=O)(O)O | 0 | 0 | 0 | – |
| Cc1cc(Br)cnc1NC(P(=O)(O)O)P(=O)(O)O | 0 | 0 | 0 | – |
| Cc1cccc(CC(O)(P(=O)(O)O)P(=O)(O)O)c1 | 0 | 0 | 0 | – |
| O=P(O)(O)C(O)(Cn1cnc2ccccc21)P(=O)(O)O | 14 | 0 | 13 | IC50 [9]: 700 nM |

| SMILES | inhibition zone (IZ) (Escherichia coli [3]) [mm] | inhibition zone (IZ) (Escherichia coli [4]) [mm] | inhibition zone (IZ) (Escherichia coli [5]) [mm] | also measured |
| --- | --- | --- | --- | --- |
| CN(C)[C@@H]1C(O)=C(C(N)=O)C(=O)[C@@]2(O)C(O)=C3C(=O)c4c(O)cccc4[C@@](C)(O)[C@H]3C[C@@H]12 [TETRACYCLINE] | 21 | 21 | 22 | – |
| CC(C)(C)c1cccc(NC(P(=O)(O)O)P(=O)(O)O)c1 | 7 | 7 | 0 | – |
| Cc1ccnc(N(Cc2ccccc2)C(P(=O)(O)O)P(=O)(O)O)c1 | 0 | 0 | 0 | – |
| O=C(O)c1cn(C2CC2)c2cc(N3CCNCC3)c(F)cc2c1=O [CIPROFLOXACIN] | – | – | – | MBC (Escherichia coli [1]): 0.076 µM (≈ 0.0252 µg/mL); MIC (Escherichia coli [1]): 0.038 µM (≈ 0.0126 µg/mL); Ratio (Escherichia coli [2]): 0.5 |
| O=P(O)(O)C(NC1CCCCC1)P(=O)(O)O [(CYCLOHEXYLAMINO)METHYLENEDIPHOSPHONIC ACID] | 7 | 8 | 9 | – |
| Cc1ncccc1NC(P(=O)(O)O)P(=O)(O)O | 7 | 8 | 12 | – |
| CN[C@@H]1[C@H](O[C@H]2[C@H](O[C@H]3[C@H](O)[C@@H](O)[C@H](N=C(N)N)[C@@H](O)[C@@H]3N=C(N)N)O[C@@H](C)[C@]2(O)C=O)O[C@@H](CO)[C@H](O)[C@H]1O [STREPTOMYCIN] | 15 | 16 | 7 | – |
| O=P(O)(O)C(NC1CCCCCCC1)P(=O)(O)O [(CYCLOOCTYLAMINO)METHYLENEDIPHOSPHONIC ACID] | 7 | 8 | 0 | – |
| Cc1ccc(C)c(COc2ccc(C)nc2NC(P(=O)(O)O)P(=O)(O)O)c1 | 0 | 0 | 0 | – |
| CC(NC(P(=O)(O)O)P(=O)(O)O)c1cccc2ccccc12 (centres undefined) | 0 | 0 | 0 | – |
| O=P(O)(O)C(Nc1ccc(-c2ccccc2)cc1)P(=O)(O)O | 9 | 8 | 7 | – |
| Cc1cccc(NC(P(=O)(O)O)P(=O)(O)O)n1 | 7 | 10 | 8 | – |
| CN(CCOc1ccccc1)CCC(O)(P(=O)(O)O)P(=O)(O)O | 11 | 15 | 11 | – |
| O=P(O)(O)C(O)(Cc1cccc(Br)c1)P(=O)(O)O | 12 | 14 | 0 | – |
| O=P(O)(O)C(O)(Cc1cccc(Cl)c1)P(=O)(O)O | 8 | 11 | 0 | – |
